Laboratory results reported in patent US20080058373A1, “Compositions and Methods for Treating or Preventing Glaucoma or Progression Thereof” (priority 2006, published 2008).
“And” between values parts separate entries of the source, which are not always exact repeats. Identical values can stand only once. “Also recorded” adds a separate entry of the source.

Columns and labels:
Myeloperoxidase (MPO) = Myeloperoxidase (MPO) activity in iris-ciliary body, rabbit paracentesis model; type: in vivo; details: for MPO activity in iris-ciliary body, Mean / MPO activity in iris-ciliary body: samples collected after the second paracentesis; for MPO activity in iris-ciliary body, Mean: group mean; for Δ/min (mean of the slope of the line recorded every 15 sec for 5 min): 100 μl supernatant aliquot diluted to 3 ml; for Δ/min (mean of the slope of the line recorded every 15 sec for 5 min) / MPO activity in iris-ciliary body: individual eyes
Experimental: 3.9 g of NaH2PO4 2H2O were dissolved in a volumetric flask to 500 ml with water. The pH was adjusted to pH=6 with 3N NaOH.
0.5 g of hexa-decyl-trimethyl-ammonium bromide was dissolved in 100 ml phosphate buffer.
The solution was prepared freshly. Ten microliters of H2O2 (30 wt. %) were diluted to 1 ml with water (solution A). 7.5 mg o-dianisidine 2HCl was dissolved in 45 ml of phosphate buffer and 75 μl of solution A were added.
Each rabbit was placed in a restraint device and tagged with the alphanumeric code. The formulations were instilled (50 μl) into the conjunctival sac of both eyes 180, 120, 90 and 30 min before the first paracentesis; then 15, 30, 90 min after the first paracentesis. To perform the first paracentesis the animals were anaesthetized by intravenous injection of 5 mg/kg Zoletil® (Virbac; 2.5 mg/kg tiletamine HCl and 2.5 mg/kg zolazepam HCl) and one drop of local anesthetic (Novesina®, Novartis) was administered to the eye. Anterior chamber paracentesis was performed with a 26 G needle attached to a tuberculin syringe; the needle was introduced into the anterior chamber through the cornea, taking care not to damage the tissues. Two hours after the first paracentesis, the animals were sacrificed with 0.4 ml Tanax® (Intervet International B.V.) and the second paracentesis was performed. About 100 μl of aqueous humor were removed at the second paracentesis. Aqueous humor was immediately split in four aliquots and stored at −80° C. until analysis. Then both eyes were enucleated and the iris-ciliary body was carefully excised, placed in polypropylene tubes, and stored at −80° C. until analysis.
The activity of MPO was measured as previously described by Williams et al.[5] The iris-ciliary bodies were carefully dried, weighed and immersed in 1 ml of hexa-decyl-trimethyl-ammonium bromide solution. Then, the samples were sonicated for 10 sec on ice by a ultrasound homogenizer (HD 2070, Bandelin electronic), freeze-thawed three times, sonicated for 10 sec and centrifuged at 14,000 g for 10 min to remove cellular debris. An aliquot of the supernatant (40-200 μl) was diluted to 3 ml with the o-dianisidine 2HCl/H2O2 solution. The change in absorbance at 460 nm was continuously monitored for 5 min by a spectrophotometer (UV/Vis Spectrometer Lambda EZ 201; Perkin Elmer). The slope of the line (Δ/min) was determined for each sample and used to calculate the number of units of MPO in the tissue as follows:
Values were expressed as units of MPO/g of tissue.

[1] = tested on: rabbit eye (anterior chamber paracentesis); assay: Rabbit paracentesis model of anterior-segment inflammation (overall conclusion); type: in vivo; details: 0.1%, 0.5% and 1% topical formulations
Excerpt: Inflammatory processes are multidimensional in origin, and are characterized by complex cellular and molecular events involving numerous components all of which have not been identified. Prostaglandins are among these mediators and play an important role in certain forms of ocular inflammation. Paracentesis of the anterior chamber in the rabbit eye induces inflammatory reaction due to the disruption of the blood-aqueous barrier (“BAB”), which is mediated, at least in part, by prostaglandin E2 [References 1-3 below]. Intraocular or topical administration of PGE2 disrupts the BAB. [Reference 4, below] The treatment schedule adopted in this study was similar to the clinical NSAIDs (Ocufen) treatment schedule used by surgeons for patients before cataract surgery.
Each rabbit was placed in a restraint device and tagged with the alphanumeric code. The formulations were instilled (50 μl) into the conjunctival sac of both eyes 180, 120, 90 and 30 min before the first paracentesis; then 15, 30, 90 min after the first paracentesis. […]
Pupillary diameter, PGE2, protein, PMN, and MPO were expressed as mean±SEM. […] Clinical score was expressed as % of eyes and the statistical analysis was performed using Kruskal-Wallis followed by a Dunn post hoc test. […]

SMILES	MPO activity in iris-ciliary body, Mean (Myeloperoxidase (MPO); 0.1% topical) [MPO Unit/g]	Δ/min (mean of the slope of the line recorded every 15 sec for 5 min) (Myeloperoxidase (MPO); 0.1% treatment, listed as Dex)	MPO activity in iris-ciliary body (Myeloperoxidase (MPO); 0.1% treatment, listed as Dex)	Δ/min (mean of the slope of the line recorded every 15 sec for 5 min) (Myeloperoxidase (MPO); 0.1% treatment, listed as BOL)	MPO activity in iris-ciliary body (Myeloperoxidase (MPO); 0.1% treatment, listed as BOL)	MPO activity in iris-ciliary body, Mean (Myeloperoxidase (MPO); 0.5% topical) [MPO Unit/g]	Δ/min (mean of the slope of the line recorded every 15 sec for 5 min) (Myeloperoxidase (MPO); 0.5% treatment, listed as BOL)	MPO activity in iris-ciliary body (Myeloperoxidase (MPO); 0.5% treatment, listed as BOL)	MPO activity in iris-ciliary body, Mean (Myeloperoxidase (MPO); 1% topical) [MPO Unit/g]	Δ/min (mean of the slope of the line recorded every 15 sec for 5 min) (Myeloperoxidase (MPO); 1% treatment, listed as BOL)	MPO activity in iris-ciliary body (Myeloperoxidase (MPO); 1% treatment, listed as BOL)	Anti-inflammatory activity in the rabbit paracentesis model (preliminary conclusion) [1]
C[C@@H]1C[C@H]2[C@@H]3CCC4=CC(=O)C=C[C@]4(C)[C@@]3(F)[C@@H](O)C[C@]2(C)[C@@]1(O)C(=O)CO [dexamethasone, reference compound]	0.618	0.029 and 0.031 and 0.064 and 0.023 (2×) and 0.019 and 0.024 and 0.021	0.71 Unit/g and 0.60 Unit/g and 1.32 Unit/g and 0.48 Unit/g (2×) and 0.39 Unit/g and 0.45 Unit/g and 0.51 Unit/g									
Cc1ccc2c(NCC(O)(CC(C)(C)c3cc(F)cc4c3OCC4)C(F)(F)F)cccc2n1 (stereo not shown)	0.971			0.051 and 0.042 (2×) and 0.045 and 0.050 and 0.031 (2×) and 0.036	1.04 Unit/g and 1.00 Unit/g and 1.14 Unit/g and 1.06 Unit/g and 1.22 Unit/g and 0.61 Unit/g and 1.05 Unit/g and 0.65 Unit/g	0.775	0.044 and 0.040 and 0.031 and 0.049 and 0.033 and 0.034 and 0.022 and 0.026	0.85 Unit/g and 0.93 Unit/g and 0.79 Unit/g and 1.03 Unit/g and 0.75 Unit/g and 0.74 Unit/g and 0.54 Unit/g and 0.58 Unit/g	0.542	0.024 and 0.033 and 0.017 and 0.018 (2×) and 0.016 and 0.052 and 0.013	0.66 Unit/g and 0.68 Unit/g and 0.49 Unit/g and 0.40 Unit/g and 0.34 Unit/g and 1.02 Unit/g and 0.31 Unit/g and 0.43 Unit/g	active in this model; also recorded: as effective an anti-inflammatory drug as some of the commonly accepted prior-art steroids or NSAID
